What all share (assay): DTP human tumour cell line panel, 48 h
For assay [1], the system named is A549 NSCLC.
Assay [2] has as its system ACHN renal.
The test system of assay [3] is COLO 205 colon.
Assay [4] deals with HOP-62 NSCLC.
Assay [5] relates to MDA-MB-231 breast.
Assay [6] relates to MDA-MB-435.
The subject of assay [7] is MDA-N.
In assay [8] the test system is RPMI-8226 leukemia.
Assay [9] has as its system U251 CNS.
Assay [10] has as its system UO-31 renal.

Data on ten compounds can be found in PubChem BioAssay (NCI).

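In this assay, cells in 96-well plates receive the compound at five concentrations for 48 hours. Endpoints are linearly interpolated between the surrounding concentrations. TGI marks complete inhibition of growth.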

As usually defined, the TGI is the concentration at which net growth stops. A higher TGI goes with lower sensitivity of the cells. `COc1ccc(-c2cc(-c3cc(F)c(Cl)cc3Cl)on2)cc1OC`: the TGI was more than 100 µM in assay [1]; more than 100 µM in assay [2]; 92.3 µM in assay [3]; more than 100 µM in assay [4]; more than 100 µM in assay [5]; 16.9 µM in assay [6]. The TGI is 41 µM in [7], more than 100 µM in assay [8], more than 100 µM in assay [9] and more than 100 µM in [10].
In the case of `Clc1ncc(Cl)c(Cl)n1`, the TGI in [1] is 28.8 µM; in [2], 3.63 µM; in assay [3], 3.3 µM; in assay [4] it was 39.4 µM; in [5] it was 7.82 µM; in [6], 7.52 µM. Besides, the TGI in assay [7] came to 11 µM; in assay [8], 6.47 µM; in assay [9], 11.2 µM; in [10] it was 7.17 µM.
Turning to `Cc1nc2ccccc2n1Cc1nnc(N)o1`, the TGI was more than 100 µM in assay [1]; more than 100 µM in assay [2]; more than 100 µM in assay [3]; more than 100 µM in [4]; more than 100 µM in assay [5]; 21.3 µM in assay [6]. Further, the TGI in assay [7], in assay [8], in [9] and in [10] was more than 100 µM throughout.
Take `CC(NC(C#N)CC12CC3CC(CC(C3)C1)C2)c1ccccc1` (stereo not given): the TGI in assay [1], in assay [2], in assay [3], in assay [4], in assay [5] and in [6] was more than 100 µM in each case. For the same compound, the TGI in assay [7] was more than 100 µM; in [8], 44 µM; in [9], more than 100 µM; in [10], more than 100 µM.
As to `COC(=O)c1cc(C(=CCC[C@H]2CC[C@@]3(C)C(CCC4C3CC[C@@]3(C)C4CC[C@@H]3C(C)CCCC(C)C)C2)c2cc(Cl)c(OC(=O)c3ccccc3)c(C(=O)OC)c2)cc(Cl)c1OC(=O)c1ccccc1` (stereo not given in full), the TGI in assay [1], in assay [2], in assay [3], in [4], in assay [5] and in assay [6] was more than 10 µM each time. Moreover, the TGI in assay [7], in assay [8], in assay [9] and in [10] was more than 10 µM each time.
Regarding `C=CCN(c1cc(OC)c2[nH]cc(C)c2c1[N+](=O)[O-])S(C)(=O)=O`, the total growth inhibition concentration (TGI) in assay [1], in assay [2], in assay [3], in assay [4], in assay [5] and in assay [6] was more than 100 µM in each case. The total growth inhibition concentration (TGI) in assay [7], in assay [8], in [9] and in assay [10] was more than 100 µM each time.
With `CC(=O)O[C@H]1C[C@H]2C(=S)Nc3ccccc3C(=S)N2C1`, the TGI in [1], in assay [2], in assay [3], in [4], in assay [5] and in assay [6] was more than 100 µM in each case. In addition, the TGI in assay [7], in assay [8], in assay [9] and in assay [10] was more than 100 µM in each case.
With `CC1CCc2sc3[nH]c(=S)n(-c4ccccc4)c(=O)c3c2C1` (stereo not given), the TGI in assay [1], in assay [2], in [3], in assay [4], in assay [5] and in [6] was more than 100 µM each time. In addition, the TGI in [7], in assay [8], in [9] and in [10] was more than 100 µM in each case.
Regarding `NS(=O)(=O)c1nnc(NS(=O)(=O)c2ccccc2C(=O)O)s1`, the TGI in [1], in assay [2], in [3], in assay [4], in assay [5] and in assay [6] was more than 100 µM in each case. Further, the TGI in [7], in [8], in assay [9] and in assay [10] was more than 100 µM in each case.
On to `CC(=O)OCC1=C(C)C[C@H]([C@@H](COC(C)=O)C2CCC3C4C[C@H]5O[C@]56CC=CC(=O)[C@]6(C)C4CC[C@@]32C)OC1=O` (stereo not given in full), for which the TGI in [1] was found to be 7.12 µM; in assay [2] it was 2.68 µM; in [3] it was 1 µM; in [4], 1.91 µM; in assay [5] it was 1.91 µM; in assay [6] it was 0.721 µM. Besides, the TGI turned out to be 0.675 µM in [7], 0.181 µM in assay [8], 1.05 µM in [9] and 2.96 µM in assay [10].
